Experimental data reported in patent US4602927A, “4-alkylimidazole derivatives and their use as nitrification inhibitors” (BASF Aktiengesellschaft, priority 1983, dated 1986).

The compounds below were run on nitrification (assay: % inhibition of nitrification in soil (ammonium sulfate remaining in loamy sandy soil, Nessler reagent, 420 nm)). Conditions: 1 ppm based on moist soil, 50% of maximum water capacity, 28 days at 21° C., 220 mg ammonium sulfate per 200 g soil, versus untreated soil.
Protocol: 220 mg of ammonium sulfate were mixed thoroughly with 200 g of a loamy sandy soil whose moisture content had been brought to 50% of the maximum water capacity. The active ingredients, dissolved in 0.2 ml of acetone, were then added in amounts of 1 ppm, based on moist soil. After careful, thorough mixing, and evaporation of the acetone, the soil samples were incubated for 28 days at 21° C., together with the controls without added active ingredient, 1 liter glass vessels covered with aluminum foil to avoid loss of water.
2.5 g of each of the soil samples were then introduced into 100 ml conical flasks, and 22.5 ml of a 0.1N sodium sulfate solution was added. The flask was shaken for 30 minutes, after which the mixture was filtered, and 2.5 ml samples of the soil extracts were mixed with […] of distilled water. To detect the ammonium ions still present in the soil extract, 1.25 ml of Nessler reagent were then added, and the mixture was shaken thoroughly. The color changes were then measured photometrically at a wavelength of 420 nm. The amounts of ammonium sulfate still present in the soil samples were then determined with reference to standard curves obtained by a measurement of solutions containing known amounts of ammonium sulfate. The percentage inhibition of nitrification in the treated soil samples compared with the untreated soil samples (to which only ammonium sulfate had been added) was calculated using the following formula: [formula] a=nitrification rate for ammonium sulfate b=nitrification rate for ammonium sulfate+nitrification inhibitor
Cc1ccn(C(=O)NOc2ccccc2)n1 [A, 1-phenoxycarbamyl-3-methylpyrazole, reference compound] was tested, and the “% inhibition of nitrification 4 weeks after the addition of 1 ppm of active ingredient to the soil” value (shortened to “% inhibition of nitrification 4 weeks”) was 69%.
For CNC(=O)n1cnc(C)c1Cl [Example 1, 1-N-methylcarbamyl-4-methyl-5-chloroimidazole], the “% inhibition of nitrification 4 weeks” value was 94%.
For Cc1ncn(C(=O)Nc2ccccc2)c1Cl [Example 3, 1-N-phenylcarbamyl-4-methyl-5-chloroimidazole], the “% inhibition of nitrification 4 weeks” value was 85%.
Cc1ncn(C(=O)Nc2ccc(Cl)c(Cl)c2)c1Cl [Example 4, 1-N-(3,4-dichlorophenyl)-carbamyl-4-methyl-5-chloroimidazole] was tested, and the “% inhibition of nitrification 4 weeks” value was 71%.
